Results as given in the supplement of paper PMC10307832.

Assays:
Assay in all cases: relative viability (nuclei count vs DMSO), 5 days (fraction); higher = more cells survive
VX-11e + Linsitinib = compound: CC1=CN=C(N=C1C2=CNC(=C2)C(=O)N[C@H](CO)C3=CC(=CC=C3)Cl)NC4=C(C=C(C=C4)F)Cl [VX-11e] + C[C@]1(O)C[C@@H](c2nc(-c3ccc4ccc(-c5ccccc5)nc4c3)c3c(N)nccn32)C1 [Linsitinib] (partner 1 µM)
Method in brief: (§1)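 Lung cancer cell lines were seeded in 1536-well plates and dosed by pin tool the next day, with either a single drug or a fixed anchor-drug dose combined with five library-drug doses (not always all listed) spaced in √10 steps. Five days later, one step fixed the cells and stained their nuclei (final 0.05% Triton X-100, 1% formaldehyde, 1 ug/ml Hoechst), and nuclei were counted on 4× images. Relative viability is the nuclei count in treated wells divided by the count in vehicle wells, and each value is the median of duplicate plates.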

VX-11e + OSI-027 = compound: CC1=CN=C(N=C1C2=CNC(=C2)C(=O)N[C@H](CO)C3=CC(=CC=C3)Cl)NC4=C(C=C(C=C4)F)Cl [VX-11e] + COc1cccc2cc(-c3nc([C@H]4CC[C@H](C(=O)O)CC4)n4ncnc(N)c34)[nH]c12 [OSI-027] (partner 0.5 µM)
Method in brief: as §1

VX-11e + Tozasertib = compound: CC1=CN=C(N=C1C2=CNC(=C2)C(=O)N[C@H](CO)C3=CC(=CC=C3)Cl)NC4=C(C=C(C=C4)F)Cl [VX-11e] + Cc1cc(Nc2cc(N3CCN(C)CC3)nc(Sc3ccc(NC(=O)C4CC4)cc3)n2)n[nH]1 [Tozasertib] (partner 0.1 µM)
Method in brief: as §1

VX-11e + Crizotinib = compound: CC1=CN=C(N=C1C2=CNC(=C2)C(=O)N[C@H](CO)C3=CC(=CC=C3)Cl)NC4=C(C=C(C=C4)F)Cl [VX-11e] + C[C@@H](Oc1cc(-c2cnn(C3CCNCC3)c2)cnc1N)c1c(Cl)ccc(F)c1Cl [Crizotinib] (partner 1 µM)
Method in brief: as §1

Row | Cell Line | relative viability (VX-11e + Linsitinib; first compound 0.04 µM) | relative viability (VX-11e + Linsitinib; first compound 0.1265 µM) | relative viability (VX-11e + Linsitinib; first compound 0.4 µM) | relative viability (VX-11e + Linsitinib; first compound 1.265 µM) | relative viability (VX-11e + Linsitinib; first compound 4 µM) | relative viability (VX-11e + OSI-027; first compound 0.04 µM) | relative viability (VX-11e + OSI-027; first compound 0.1265 µM) | relative viability (VX-11e + OSI-027; first compound 0.4 µM) | relative viability (VX-11e + OSI-027; first compound 1.265 µM) | relative viability (VX-11e + OSI-027; first compound 4 µM) | relative viability (VX-11e + Tozasertib; first compound 0.04 µM) | relative viability (VX-11e + Tozasertib; first compound 0.1265 µM) | relative viability (VX-11e + Tozasertib; first compound 0.4 µM) | relative viability (VX-11e + Tozasertib; first compound 1.265 µM) | relative viability (VX-11e + Tozasertib; first compound 4 µM) | relative viability (VX-11e + Crizotinib; first compound 0.04 µM) | relative viability (VX-11e + Crizotinib; first compound 0.1265 µM) | relative viability (VX-11e + Crizotinib; first compound 0.4 µM) | relative viability (VX-11e + Crizotinib; first compound 1.265 µM) | relative viability (VX-11e + Crizotinib; first compound 4 µM)
1 | NCI-H1355 | 0.861 | 0.798 | 0.786 | 0.574 | 0.374 | 0.302 | 0.311 | 0.197 | 0.256 | 0.224 | 0.516 | 0.544 | 0.457 | 0.346 | 0.282 | 1.1 | 0.993 | 1.09 | 0.875 | 0.479
2 | SW 1573 | 1.03 | 0.959 | 0.718 | 0.78 | 0.432 | 0.52 | 0.561 | 0.708 | 0.402 | 0.194 | 0.237 | 0.21 | 0.224 | 0.154 | 0.11 | 0.871 | 0.789 | 0.743 | 0.793 | 0.451
3 | NCI-H358 | 0.738 | 0.52 | – | 0.558 | 0.277 | 0.734 | 0.642 | 0.25 | 0.382 | 0.132 | 0.113 | 0.0919 | 0.102 | 0.096 | 0.0812 | 0.692 | 0.509 | – | 0.523 | 0.225
4 | HCC-827 | 0.967 | 0.934 | 0.975 | 1.12 | 0.859 | 0.762 | 0.797 | 0.74 | 0.977 | 0.44 | 0.396 | 0.401 | 0.421 | 0.401 | 0.347 | 1.01 | 0.953 | 0.888 | 0.958 | 0.839
5 | NCI-H441 | 0.542 | 0.584 | – | 0.657 | 0.419 | 0.519 | 0.502 | – | 0.518 | 0.417 | 0.753 | 0.55 | – | 0.585 | 0.453 | 0.711 | 0.72 | – | 0.857 | 0.555
6 | NCI-H2126 | – | 0.735 | 0.689 | 0.677 | 0.556 | 0.533 | 0.816 | 0.315 | 0.448 | 0.541 | 0.828 | 0.78 | – | 0.666 | 0.6 | – | 1.03 | 0.987 | 1.02 | 0.901
7 | EPLC-272H | 0.923 | 1.04 | 0.927 | 0.934 | 0.562 | 0.257 | 0.219 | – | 0.199 | 0.165 | 0.224 | 0.262 | – | 0.193 | 0.205 | 0.711 | 0.877 | 0.85 | 0.676 | 0.627
8 | NCI-H1651 | 1.05 | 1.02 | 0.797 | 0.927 | 0.758 | 0.56 | 0.62 | 0.523 | 0.548 | 0.591 | 0.898 | 0.523 | 0.536 | 0.38 | 0.253 | 0.916 | 0.821 | 0.826 | 0.768 | 0.812
9 | NCI-H727 | 0.314 | 0.252 | 0.215 | 0.274 | 0.184 | 0.353 | 0.678 | 0.522 | 0.447 | 0.284 | 0.66 | 0.48 | 0.45 | 0.429 | 0.325 | 0.722 | 0.847 | 0.712 | 0.419 | 0.243
10 | LOU-NH91 | 0.919 | 0.952 | – | 0.946 | 0.733 | 0.622 | 0.67 | 0.497 | 0.611 | 0.541 | 0.807 | 0.647 | 0.384 | 0.593 | 0.618 | 0.706 | 0.71 | – | 0.773 | 0.639
11 | HARA | 1.01 | 0.9 | 1.02 | 1.04 | 0.417 | 0.269 | 0.372 | 0.279 | 0.186 | 0.0641 | 0.106 | 0.118 | 0.119 | 0.0971 | 0.0712 | 1.05 | 0.792 | 1.04 | 0.833 | 0.813
12 | CAL-12T | 0.873 | 0.816 | 0.765 | 0.465 | 0.282 | 0.402 | 0.523 | 0.424 | 0.312 | 0.199 | 0.384 | 0.25 | 0.26 | 0.247 | 0.155 | 0.697 | 0.632 | 0.633 | 0.543 | 0.394
13 | LCLC-103H | 1.24 | 0.985 | 0.954 | 0.857 | 0.836 | 0.461 | 0.458 | 0.43 | 0.402 | 0.344 | 0.467 | 0.412 | 0.48 | 0.3 | 0.4 | 1.01 | 1.09 | 0.968 | 0.882 | 0.852
14 | A-427 | 1.14 | 1.08 | 1.01 | 0.888 | 0.466 | 0.334 | 0.19 | 0.309 | 0.215 | 0.183 | 0.181 | 0.18 | 0.132 | 0.143 | 0.16 | 0.92 | 0.721 | 0.55 | 0.688 | 0.311
15 | NCI-H520 | 0.948 | 0.898 | 0.827 | 1.06 | 0.69 | 0.247 | 0.25 | 0.203 | 0.217 | 0.313 | 0.464 | 0.401 | 0.397 | 0.468 | 0.4 | 0.773 | 0.748 | 0.741 | 0.914 | 0.59
16 | HCC-44 | 0.697 | 0.619 | 0.686 | 0.657 | 0.523 | 0.485 | 0.453 | 0.144 | 0.247 | 0.284 | 0.975 | 0.863 | 0.182 | 0.396 | 0.549 | 0.879 | 0.809 | 0.833 | 0.753 | 0.453
17 | NCI-H2009 | 1.17 | 1.11 | 1.18 | 1.09 | 0.259 | 0.637 | 0.665 | 0.559 | 0.226 | 0.168 | 0.714 | 0.64 | 0.591 | 0.4 | 0.171 | 1.07 | 1.04 | 0.933 | 0.565 | 0.364
